Test results: US12156865B2, “Formulation for soft anticholinergic analogs” (Bodor Laboratories, Inc., priority 2016, dated 2024)

Legend:
[1] = Stability of approximately 2% BBI-4000 formulations in four solvent systems (HPLC); format: physicochemical; conditions: for Change from Baseline (40° C./75%), reduction: after 7 days at 40° C./75% humidity
Experimental: Various formulations of approximately 2% BBI-4000 were made and their stabilities assessed. The solvent systems were as follows:
(a) solvent content: 100% water;
(b) solvent content: 60% water/40% ethanol;
(c) solvent content: 30% water/70% ethanol;
(d) solvent content: 100% ethanol.
Each sample was assessed at baseline; after 7 days at 25° C./60% humidity; and after 7 days at 40° C./75% humidity. The percentage change from baseline for 40° C. after 7 days was calculated in each case. HPLC analysis was conducted as described in EXAMPLE 2 below.

[2] = Toxicokinetics (PK analysis) in Gottingen Minipigs; format: in vivo
Experimental: (§2) All groups received 2 mL of gel formulation, once a day, for 14 consecutive days, applied to approximately 10% of their body surface area on their backs.
Blood samples for chemistry and hematology analysis were collected as well as PK samples.
(§3) The estimated BBI-4000 dose applied to the skin in this study was 40 mg/kg/day for Group 3 and 20 mg/kg/day for Group 2.

[3] = test system: sweat production in subjects with axillary hyperhidrosis; assay: Study BBI-4000-CL-101: gravimetrically measured sweat production; format: in vivo, human
Experimental: (§1) Efficacy was assessed by the change in gravimetrically measured sweat production and the change in hyperhidrosis disease severity scale (HDSS) from baseline to Day 15 (end of therapy).
For the gravimetric assessment, sweat production was measured by placing filter paper (pre-weighed) on the axilla for 5 minutes while the subject was in a semi-reclining position at room temperature. The filter paper was covered with plastic during exposure to the axilla, and was then weighed following the 5-minute exposure period to calculate the amount of sweat produced.

[4] = test system: subjects with axillary hyperhidrosis; assay: Study BBI-4000-CL-101: hyperhidrosis disease severity scale (HDSS); format: in vivo, human
Experimental: as §1
For the HDSS, subjects rated the severity of their hyperhidrosis on a 4-point scale (1, 2, 3, or 4) based on the level of interference with their daily activities.

[5] = test system: Gottingen Minipigs; assay: 14-day dermal and systemic toxicity study in Gottingen Minipigs; conditions: anhydrous composition, 14 days
Experimental: as §2
The study included daily observations of the site of application and scoring of erythema and edema (if present), daily general examinations including heart rate as well as pupil size assessment at days 1, 2, 3, 5, 7, 10 and 14. The frequent observations of heart rate and pupil size were intended to identify any potential systemic anticholinergic effect. Main organs were evaluated during necropsy and histopathology evaluation was completed for treated and untreated skin. Blood samples for chemistry and hematology analysis were collected as well as PK samples.
as §3

[6] = Hydrolysis and stability testing of aqueous BBI-4000 formulations (HPLC); conditions: aqueous formulations of Table II
Experimental: An HPLC method was developed at a commercial laboratory for assaying the soft anticholinergic analog, and related substances (including hydrolysis products):
• High performance liquid chromatography (HPLC) system Chromatography data system • XBridge Shield RP18, 4.6×150 mm, 3.5 μm HPLC column • Analytical balance capable of weighing to 0.00001 g • Ultrasonic bath • Volumetric flasks, 1, 5 mL • Syringe Filter: 25 mm, 0.45 μm, HPF Millex-HV, Millipore or suitable alternative
• BBI-4000 standard • Water, HPLC grade • Acetonitrile (can), Optima grade • Trifluroacetic acid (TFA), Fisher • Mobile Phase “A”: 0.1% TFA in Water • Mobile Phase “B”: 0.1% TFA in Acetonitrile • Auto Sampler Flush: 1:1 Water:Acetonitrile • Diluent: Acetonitrile
The standards were prepared in duplicate by weighing 2.0±0.1 mg of BBI-4000 into 1 mL volumetric flasks. Dissolved and diluted to volume with acetonitrile and mixed by inversion.
The liquid chromatographic system was set-up as follows: • HPLC Column: XBridge Shield RP18, 4.6×150 mm, 3.5 μm • Column Temp.: 25±1° C. • Sample Temp.: ambiant • Flow Rate: 1.5 mL/min • Injection Volume: 10 μL • UV Detection: 220 nm • Run Time: 20 minutes
The HPLC assay was conducted on formulations at differing pH values, and the results were reviewed for “Time-Zero” and at 7 days at 40° C.:

[7] = Solvent Content: 30% water, 70% Ethanol, Baseline
[8] = Solvent Content: 30% water, 70% Ethanol, Day 7 @ 25° C./60%
[9] = Solvent Content: 30% water, 70% Ethanol, Day 7 @ 40° C./75%
[10] = Solvent Content: 60% water, 40% Ethanol, Baseline
[11] = Solvent Content: 60% water, 40% Ethanol, Day 7 @ 25° C./60%
[12] = Solvent Content: 60% water, 40% Ethanol, Day 7 @ 40° C./75%
[13] = Solvent Content: 100% Ethanol, Baseline
[14] = Solvent Content: 100% Ethanol, Day 7 @ 25° C./60%
[15] = Solvent Content: 100% Ethanol, Day 7 @ 40° C./75%
[16] = Solvent Content: 100% Water, Baseline
[17] = Solvent Content: 100% Water, Day 7 @ 25° C./60%
[18] = Solvent Content: 100% Water, Day 7 @ 40° C./75%

CCOC(=O)C[N@+]1(C)CCC(OC(=O)[C@](O)(c2ccccc2)C2CCCC2)C1.[Br-] (stereo partly drawn) [BBI-4000, (2R,3′R) 3-(2-cyclopentyl-2-phenyl-2-hydroxyacetoxy)-1-(ethoxycarbonylmethyl)-1-methylpyrrolidinium bromide]
BBI-4000 Assay [1, 7]: 1.99%
BBI-4000 Main Hydrolysis Products (RRT-0.79-0.84) [1, 7]: 0%
BBI-4000 Assay [1, 8]: 1.95%
BBI-4000 Main Hydrolysis Products (RRT-0.79-0.84) [1, 8]: 0.84%
BBI-4000 Assay [1, 9]: 1.89%
BBI-4000 Main Hydrolysis Products (RRT-0.79-0.84) [1, 9]: 3.50%
Change from Baseline (40° C./75%), reduction ([1]; Solvent Content: 30% water, 70% Ethanol): 5%
BBI-4000 Assay [1, 10]: 1.99%
BBI-4000 Main Hydrolysis Products (RRT-0.79-0.84) [1, 10]: 0%
BBI-4000 Assay [1, 11]: 1.94%
BBI-4000 Main Hydrolysis Products (RRT-0.79-0.84) [1, 11]: 0.83%
BBI-4000 Assay [1, 12]: 1.89%
BBI-4000 Main Hydrolysis Products (RRT-0.79-0.84) [1, 12]: 3.40%
Change from Baseline (40° C./75%), reduction ([1]; Solvent Content: 60% water, 40% Ethanol): 5%
BBI-4000 Assay [1, 13]: 2.02%
BBI-4000 Main Hydrolysis Products (RRT-0.79-0.84) [1, 13]: 0%
BBI-4000 Assay [1, 14]: 2%
BBI-4000 Main Hydrolysis Products (RRT-0.79-0.84) [1, 14]: 0%
BBI-4000 Assay [1, 15]: 2.01%
BBI-4000 Main Hydrolysis Products (RRT-0.79-0.84) [1, 15]: 0%
Change from Baseline (40° C./75%), reduction ([1]; Solvent Content: 100% Ethanol): <1%
BBI-4000 Assay [1, 16]: 1.99%
BBI-4000 Main Hydrolysis Products (RRT-0.79-0.84) [1, 16]: 0%
BBI-4000 Assay [1, 17]: 1.91%
BBI-4000 Main Hydrolysis Products (RRT-0.79-0.84) [1, 17]: 1.90%
BBI-4000 Assay [1, 18]: 1.80%
BBI-4000 Main Hydrolysis Products (RRT-0.79-0.84) [1, 18]: 7.42%
Change from Baseline (40° C./75%), reduction ([1]; Solvent Content: 100% Water): 9.5%
Systemic exposure of BBI-4000 (PK analysis) ([2]; 10% and 20% gel (20 and 40 mg/kg/day), topical, 14 days): variable, dose related systemic exposure
Time at which the highest concentration was observed ([2]; after Day-14 dosing, minipig receiving 20% BBI-4000 concentration): 2 h
Reduction in gravimetrically measured sweat production compared to vehicle ([3]; Cohort 2, baseline to Day 15): greater reduction
Proportion of subjects with at least a 50% reduction in sweat production ([3]; Day 15, aggregate of 5% and 10% gel (9 of 12)): 75%
Improvement in HDSS assessments compared to vehicle ([4]; Cohort 2, baseline to Day 15): greater improvement
Proportion of subjects reporting a 2-point improvement in HDSS ([4]; Day 15, aggregate of 5% and 10% gel (8 of 12)): 67%
Histopathology analysis of treated skin [5]: unremarkable and identical to non-treated and vehicle treated skin
BBI-4000 content (assay number) ([6]; differing pH, Day 7 at 40° C. vs Time-Zero): decreased
Hydrolytic degradation products (two zwitterion stereoisomers, RRT 0.84 and RRT 0.80) ([6]; Day 7 at 40° C.): noticeably increased
